“And” between values parts separate entries of the source, which are not always exact repeats. Equal entries are not always repeated. Toxic doses and inconclusive results are not listed. The calls were made as follows: active = survival T/C of 150% or more; inactive = T/C below 125% in these data.
Tested on: CD2F1 mice, L1210 leukemia ip, survival T/C
Test: NCI In Vivo Anticancer Drug Screen. Data for tumor model L1210 Leukemia (intraperitoneal) in CD2F1 (CDF1) mice
Settings: higher = longer survival
Method in brief: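 Read-out first: treated-group measurement over vehicle-control measurement, expressed as a ratio. Animals bore a transplanted tumor line and were dosed with compound or vehicle.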

[1] = endpoint: mean survival time, dose: 200.0 mg/kg/injection, schedule: Q01DX009 (ip), vehicle: saline with Tween-80
[2] = endpoint: mean survival time, dose: 400.0 mg/kg/injection, schedule: Q01DX009 (ip), vehicle: saline with Tween-80
[3] = endpoint: mean survival time, dose: 100.0 mg/kg/injection, schedule: Q04DX002 (ip), vehicle: saline
[4] = endpoint: mean survival time, dose: 200.0 mg/kg/injection, schedule: Q04DX002 (ip), vehicle: saline
[5] = endpoint: mean survival time, dose: 100.0 mg/kg/injection, schedule: Q01DX009 (ip), vehicle: saline with Tween-80
[6] = endpoint: mean survival time, dose: 100.0 mg/kg/injection, schedule: Q04DX002 (ip), vehicle: saline with Tween-80
[7] = endpoint: mean survival time, dose: 200.0 mg/kg/injection, schedule: Q04DX002 (ip), vehicle: saline with Tween-80
[8] = endpoint: mean survival time, dose: 400.0 mg/kg/injection, schedule: Q04DX002 (ip), vehicle: saline with Tween-80
[9] = endpoint: mean survival time, dose: 400.0 mg/kg/injection, schedule: Q04DX003 (ip), vehicle: saline with Tween-80
[10] = endpoint: mean survival time, dose: 100.0 mg/kg/injection, schedule: Q01DX009 (ip), vehicle: saline

Measured: T/C

COc1ccc(NC(=O)Nc2cc(Cl)ccc2Cl)cc1
inactive: [1] 88 % of control | [2] 100 % of control

O=C(Nc1cccc(O)c1)C(Cl)=C(Cl)Cl
inactive: endpoint: median survival time, dose: 1.12 mg/kg/injection, schedule: Q01DX005 (ip), vehicle: DMSO 100 % of control | endpoint: median survival time, dose: 1.19 mg/kg/injection, schedule: Q01DX005 (ip), vehicle: DMSO 101 % of control | endpoint: median survival time, dose: 1.87 mg/kg/injection, schedule: Q01DX005 (ip), vehicle: DMSO 100 % of control and 102 % of control | endpoint: median survival time, dose: 3.12 mg/kg/injection, schedule: Q01DX005 (ip), vehicle: DMSO 113 % of control and 98 % of control | endpoint: median survival time, dose: 5.19 mg/kg/injection, schedule: Q01DX005 (ip), vehicle: DMSO 104 % of control | endpoint: median survival time, dose: 5.2 mg/kg/injection, schedule: Q01DX005 (ip), vehicle: DMSO 108 % of control | endpoint: median survival time, dose: 6.25 mg/kg/injection, schedule: Q01DX005 (ip), vehicle: other 120 % of control | endpoint: median survival time, dose: 8.66 mg/kg/injection, schedule: Q01DX005 (ip), vehicle: DMSO 102 % of control | endpoint: median survival time, dose: 8.67 mg/kg/injection, schedule: Q01DX005 (ip), vehicle: DMSO 114 % of control | endpoint: median survival time, dose: 12.5 mg/kg/injection, schedule: Q01DX005 (ip), vehicle: other 118 % of control | endpoint: median survival time, dose: 25.0 mg/kg/injection, schedule: Q01DX005 (ip), vehicle: other 93 % of control

Nc1cn2ncnc2c(=O)[nH]1
inactive: endpoint: median survival time, dose: 50.0 mg/kg/injection, schedule: Q01DX005 (ip), vehicle: saline 106 % of control | endpoint: median survival time, dose: 100.0 mg/kg/injection, schedule: Q01DX005 (ip), vehicle: saline 106 % of control | endpoint: median survival time, dose: 200.0 mg/kg/injection, schedule: Q01DX005 (ip), vehicle: saline 113 % of control

CNC(=O)c1ccc[n+](CC(=O)NCc2ccccc2)c1
inactive: endpoint: mean survival time, dose: 100.0 mg/kg/injection, schedule: Q04DX003 (ip), vehicle: saline 107 % of control

CCCCCCCCCCCC(C)(O)C#N (stereo not drawn)
inactive: [3] 96 % of control | [4] 92 % of control | endpoint: mean survival time, dose: 400.0 mg/kg/injection, schedule: Q04DX002 (ip), vehicle: saline 100 % of control

CC1=C(N2CC2)C(=O)c2c(COC(N)=O)c3n(c2C1=O)C[C@H]1N[C@@H]31
inactive: endpoint: mean survival time, dose: 3.0 mg/kg/injection, schedule: Q01DX001 (ip), vehicle: distilled water + Tween-80 106 % of control | endpoint: mean survival time, dose: 6.0 mg/kg/injection, schedule: Q01DX001 (ip), vehicle: distilled water + Tween-80 118 % of control | endpoint: mean survival time, dose: 12.0 mg/kg/injection, schedule: Q01DX001 (ip), vehicle: distilled water + Tween-80 122 % of control | endpoint: mean survival time, dose: 24.0 mg/kg/injection, schedule: Q01DX001 (ip), vehicle: distilled water + Tween-80 120 % of control

CC(C)C(=O)C(C)(C)C(=O)N1CCCCC1
inactive: [5] 96 % of control | [1] 103 % of control | [2] 94 % of control

N#Cc1cccnc1Cl
inactive: endpoint: median survival time, dose: 50.0 mg/kg/injection, schedule: Q04DX002 (ip), vehicle: saline with Tween-80 100 % of control | endpoint: median survival time, dose: 100.0 mg/kg/injection, schedule: Q04DX002 (ip), vehicle: saline with Tween-80 100 % of control | endpoint: median survival time, dose: 200.0 mg/kg/injection, schedule: Q04DX002 (ip), vehicle: saline with Tween-80 111 % of control

COC(=O)c1ccc(OC)c2nc3c(C=O)c(OC)c(C)c(OC)c3nc12
inactive: endpoint: mean survival time, dose: 100.0 mg/kg/injection, schedule: Q01DX001 (ip), vehicle: saline with Tween-80 94 % of control | [6] 98 % of control | endpoint: mean survival time, dose: 200.0 mg/kg/injection, schedule: Q01DX001 (ip), vehicle: saline with Tween-80 95 % of control | [7] 106 % of control | endpoint: mean survival time, dose: 400.0 mg/kg/injection, schedule: Q01DX001 (ip), vehicle: saline with Tween-80 103 % of control | [8] 106 % of control

C1CCN(P(N2CCCCC2)N2CCCCC2)CC1
inactive: [3] 92 % of control | [4] 92 % of control

CN(C)C(=O)c1ccccc1C(=O)c1ccccc1
inactive: [6] 94 % of control | [7] 87 % of control | [8] 91 % of control

Cn1c(=O)[nH]c2c(-c3ccccc3)n[nH]c2c1=O
inactive: endpoint: median survival time, dose: 25.0 mg/kg/injection, schedule: Q04DX003 (ip), vehicle: saline with Tween-80 90 % of control | endpoint: median survival time, dose: 100.0 mg/kg/injection, schedule: Q04DX003 (ip), vehicle: saline with Tween-80 90 % of control | endpoint: median survival time, dose: 200.0 mg/kg/injection, schedule: Q04DX003 (ip), vehicle: saline with Tween-80 90 % of control

O=C1N(Cc2ccccc2)CC2C(c3ccccc3)NNC12O (stereo not drawn)
inactive: endpoint: mean survival time, dose: 100.0 mg/kg/injection, schedule: Q04DX003 (ip), vehicle: saline with Tween-80 89 % of control | [9] 101 % of control

O=c1[nH]c(-c2ccccc2)nc(-c2ccc(Cl)cc2)c1CCO
inactive: [5] 95 % of control | [1] 91 % of control | endpoint: mean survival time, dose: 200.0 mg/kg/injection, schedule: Q04DX003 (ip), vehicle: saline with Tween-80 91 % of control | [2] 96 % of control | [9] 86 % of control

N=C(N)c1ccc(OCCCCOc2ccc(NC(=O)Nc3cc(S(=O)(=O)F)ccc3Cl)cc2)cc1
inactive: endpoint: mean survival time, dose: 75.0 mg/kg/injection, schedule: Q01DX001 (ip), vehicle: saline with Tween-80 95 % of control | endpoint: mean survival time, dose: 150.0 mg/kg/injection, schedule: Q01DX001 (ip), vehicle: saline with Tween-80 90 % of control | endpoint: mean survival time, dose: 300.0 mg/kg/injection, schedule: Q01DX001 (ip), vehicle: saline with Tween-80 95 % of control

CC12CCC(=O)C=C1CCCC2=O (stereo not drawn)
inactive: endpoint: mean survival time, dose: 50.0 mg/kg/injection, schedule: Q01DX009 (ip), vehicle: saline 98 % of control | [10] 96 % of control

CCCCN(CCCC)CCC(=O)OCC
inactive: [5] 101 % of control | [1] 95 % of control | [2] 112 % of control

Clc1ccc(C2c3ccccc3C[n+]3ccccc32)cc1 (stereo not drawn)
inactive: endpoint: mean survival time, dose: 12.5 mg/kg/injection, schedule: Q04DX003 (ip), vehicle: Klucel (hydroxypropylcellulose) (HPC) 93 % of control | endpoint: mean survival time, dose: 25.0 mg/kg/injection, schedule: Q04DX003 (ip), vehicle: Klucel (hydroxypropylcellulose) (HPC) 93 % of control

CC(=O)c1cc(Br)cc(Br)c1O
inactive: endpoint: mean survival time, dose: 100.0 mg/kg/injection, schedule: Q01DX001 (ip), vehicle: saline 96 % of control | endpoint: mean survival time, dose: 200.0 mg/kg/injection, schedule: Q01DX001 (ip), vehicle: saline 100 % of control | endpoint: mean survival time, dose: 400.0 mg/kg/injection, schedule: Q01DX001 (ip), vehicle: saline 96 % of control

O=C1CC2=C(CC(O)=CC=C2)C(=O)O1
inactive: [10] 101 % of control | endpoint: mean survival time, dose: 200.0 mg/kg/injection, schedule: Q01DX009 (ip), vehicle: saline 93 % of control

Nc1nc2c(ncn2C2OC(CO)C(O)C2O)c(=O)[nH]1 (stereo not drawn)
inactive: endpoint: mean survival time, dose: 25.0 mg/kg/injection, schedule: Q01DX009 (ip), vehicle: saline with Tween-80 98 % of control and 105 % of control | endpoint: mean survival time, dose: 50.0 mg/kg/injection, schedule: Q01DX009 (ip), vehicle: saline with Tween-80 101 % of control and 103 % of control | [5] 98 % of control and 102 % of control | [1] 95 % of control and 104 % of control | [2] 101 % of control and 104 % of control | endpoint: mean survival time, dose: 800.0 mg/kg/injection, schedule: Q01DX009 (ip), vehicle: saline with Tween-80 98 % of control and 110 % of control | endpoint: median survival time, dose: 1000.0 mg/kg/injection, schedule: Q01DX009 (ip), vehicle: saline with Tween-80 106 % of control | endpoint: median survival time, dose: 1500.0 mg/kg/injection, schedule: Q01DX009 (ip), vehicle: saline with Tween-80 89 % of control | endpoint: median survival time, dose: 2000.0 mg/kg/injection, schedule: Q01DX009 (ip), vehicle: saline with Tween-80 91 % of control and 108 % of control

NC(=S)N/N=C/c1c(O)ccc2ccccc12
inactive: endpoint: mean survival time, dose: 12.5 mg/kg/injection, schedule: Q04DX003 (ip), vehicle: saline with Tween-80 98 % of control | endpoint: mean survival time, dose: 25.0 mg/kg/injection, schedule: Q04DX003 (ip), vehicle: saline with Tween-80 95 % of control | endpoint: mean survival time, dose: 50.0 mg/kg/injection, schedule: Q04DX003 (ip), vehicle: saline with Tween-80 95 % of control
